For data set [1], the system named is fibroid xenografts. The experiment in a line: Immunoblotting of fibroid xenografts (Example 1). It counts as in vivo, SCID/Beige mice. The following applies: 20 mg/kg daily, 8 weeks. The text has this: Protein extracted from the xenografts underwent immunoblotting as previously described. Primary antibodies targeting COL3A1, FN1, SPARC, TDO2, and Cleaved Caspase 3 were purchased from Proteintech Group, Inc. (Chicago, IL, USA). Band densities of specific proteins were quantified using the Image J program (http://imagej.nih.gov/ij/), and normalized to a Ponceau S staining band on the membrane. Results were expressed as means±SEM, and are presented as ratios relative to the control group, designated as 1.

Data set [2] in a line: Tolerability and body weight of xenograft mice (Example 2). To be noted: 5 mg/kg/three times per week.
Method: 9-12-weeks-old female ovariectomized SCID/Beige mice (Charles River Laboratories) were implanted with pellets (Innovative Research of America) containing estradiol (0.05 mg/90 d release) and progesterone (25 mg/60 d release) as previously reported (4, 5). […] After two months of treatment animals were sacrificed, and blood was obtained by cardiac puncture.
Briefly, freshly obtained fibroids from hysterectomies was cut aseptically into small pieces (4-5-mm3 cubes) using a razor blade and weighed. Equal weights of the explants from the same patient were implanted in the flank of SCID mice. […] After two months of treatment animals were sacrificed, and blood was obtained by cardiac puncture.
The subject of data set [3] is fibroid xenografts. Put plainly: Total collagen enzyme-linked immunosorbent assay of xenografts (Example 1). Format: in vivo, SCID/Beige mice. To be noted: 20 mg/kg daily, 8 weeks, vs controls. Here is the method: The total collagen content in xenografts was assessed in duplicate using the QuickZyme Total Collagen Assay Kit (QuickZyme Biosciences, Leiden, Netherlands), following the manufacturer's instructions as previously described. Absorbance readings were taken spectrophotometrically at a wavelength of 570 nm, and concentrations were determined by comparing sample optical density values to a standard curve. Total collagen levels were quantified as μg/ml of protein and reported as fold change relative to the vehicle group.

Data set [4] deals with primary fibroid smooth muscle cells. The following applies: refs [10, 93]; cited from earlier work.
Data set [5] has as its system fibroid xenografts. Put plainly: RNA sequencing of fibroid xenografts (Example 1). Format: in vivo, SCID/Beige mice. To be noted: for number of downregulated transcripts (RNAseq) / number of upregulated transcripts (RNAseq): cutoff 1.5 fold, xenografts after two months, n=4 vs 4 vehicle.
Data set [6] concerns leiomyoma smooth muscle cells (LSMC). The experiment in a line: 3D spheroid culture of leiomyoma smooth muscle cells, qRT-PCR (Example 2). It counts as cell-based, human. The following applies: 3D cultured LSMC, 5 μM, 24 h. Here is the method:
Leiomyoma smooth muscle cells (LSMC) were cultured in DMEM supplemented with 10% fetal bovine serum until reaching confluence with a change of media every 2-3 days. Cells at passages p1 to p3 were used for all experiments. Isolated LSMC were plated in 6-well plates (1.5×10^5 cells/well) which were coated with 0.5% agarose gel and incubated 48 hours for spheroid formation with size ranging from 50 μm to 250 μm in diameter (1). For blocking IκBα phosphorylation and nuclear translocation of NFκB, LSMC spheroids were treated with 5 μM of Bay 11-7082 (Cayman Chemical, Ann Arbor, Michigan) for 24 hours. […]
Total RNA was extracted from the xenografts using TRIzol (Thermo Fisher Scientific Inc., Waltham, MA). RNA concentration and integrity was determined using a Nanodrop 2000c spectrophotometer (Thermo Scientific, Wilmington, DE) and Agilent 2100 Bioanalyzer (Agilent Technologies, Santa Clara, CA) as previously described (7, 8). […] Quantitative RT-PCR was carried out using SYBR gene expression master mix (Applied Biosystems). […] The expression levels of selected genes were quantified using Invitrogen StepOne System with FBXW2 (F-box and WD repeat domain containing 2) used for normalization (9). All reactions were run in triplicate and relative mRNA expression was determined using the comparative cycle threshold method (2−ΔΔCq), as recommended by the supplier (Applied Biosystems). […]

The test system of another data set is human fibroid explants. The experiment in a line: Fibroid explant culture, qRT-PCR. Format: cell-based. The following applies: 5 μM, 48 hours. The method, then: Quantitative RT-PCR was performed as previously described. Selected gene expression levels were assessed utilizing the Invitrogen StepOne System, with normalization against 18S. Triplicate reactions were conducted, and relative mRNA expression was calculated using the comparative cycle threshold method (2−ΔΔCt), with results presented as fold change relative to the control group. The primer sequences used are shown in the following Sequence Table:
Equal weights of fibroid explants, aseptically cut from the same patient, were plated in 6-well plates containing complete medium. They were then incubated for 48 hours with either vehicle or Bay (5 μM).

[7] abbreviates: xenografts, 20 mg/kg daily, two months.

Molecules are shown by their SMILES.

Regarding `Cc1ccc(S(=O)(=O)/C=C/C#N)cc1` [Bay 11-7082], the “protein abundance of COL3A1, FN1, SPARC, TDO2 (Western blot)” value in the data set with fibroid xenografts [1] is “inhibited”. The “effect on body weight” value in data set [2] is reported as “no significant effects”. In addition, in data set [2] (vehicle 26.16g±0.49), the body weight amounted to 25.42 g. For the same compound, in the data set on fibroid xenografts [3], the “total collagen protein levels” value is “significant decrease”. Moreover, the “expression of miR-29c and miR-200c” value in data set [4] is recorded as “induced”. In the data set with fibroid xenografts [5], the “number of downregulated transcripts (RNAseq)” value turned out to be 629 and the “number of upregulated transcripts (RNAseq)” value came to 374. For the same compound, in the data set with fibroid xenografts [5] (listed as Bay), the “number of downregulated transcripts (RNAseq)” value is given as 374 and the “number of upregulated transcripts (RNAseq)” value is 629. In addition, in the data set with fibroid xenografts [5] (setting [7]), the “RNAseq: expression of TDO2 and serotonin receptor HTR1B” value is reported as “significantly inhibited”; the “RNAseq: expression of growth factors (IGF1, EGF, PDGF, FGF8, PRL, TGFB3) and ECM components (COL3A1, KRT10)” value is on record as “decrease”; the “RNAseq: genes of cell proliferation, mitosis, mitotic apparatus, cytokinesis (Ki67, E2F1, CCND1, CCNB1, CCNA2, BUB1, CKS2 and others)” value is given as “downregulated”; the “RNAseq: pro-inflammatory cytokines (IL1a, IL1b, TNF, IL6, IL15, IL7R, TNFRSF11A), TLR3, TLR6, chemokines (CXCCR4, CCR5, CCL3, CCL5)” value is listed as “downregulation”. In addition, the “RNAseq: vWF, ICAM1, ITGAX, SOX2, CXCL8, IL10, IL13” value with fibroid xenografts [5] (xenografts, two months, significant variation among animals) is on record as “up-regulated”. Also, the “expression of IL8, TGFB3, Col3A1, CDK2, CCND1, DNMT1 and DNMT3A” value in data set [6] is given as “significant decrease”. Moreover, in the data set on human fibroid explants, the “mRNA levels of TLR3, TLR6, MyD88, TNFα, ESR1, HTR1B, TNFRSF11A” value is on record as “without significant effects” and the “mRNA levels of VEGFC, TDO2, TGFB3, LOX, E2F1, PRL, PGR, CKS2, SPARC, COL3A1, FN1, CCND1, IL8, IL6, IL1β” value is recorded as “significant inhibition”. For the same compound, the “expression of miR-29c and miR-200c” value in the data set on human fibroid explants (fibroid explants) is reported as “significant increase”.

Values taken from patent US20240415801A1, “Methods and Compositions for Treating Fibroids” (Lundquist Institute for Biomedical Innovation at …, priority 2023, published 2024).
